Source: patent US20230365563A1, “QUINAZOLINE COMPOUND AND APPLICATION THEREOF” (SHANGHAI PHARMACEUTICALS HOLDING CO., LTD., priority 2020, published 2023)
pIC50: −log10 of the molar value. Where a name gives a salt, the structure may show the parent alone.

Columns and labels:
KRAS-G12D and SOS1 = target: T1, KRAS-G12D and SOS1 (Homo sapiens, UniProt P01116, G12D); experiment: Inhibition of KRAS-G12D/SOS1 binding (Cisbio binding kit, 665/615 ratio), Effect Embodiment A; conditions: read-out: GTP-KRAS-G12D:SOS1 IC50
T1 construct: purchased
In short: (§1)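 Compounds underwent 3-fold dilution from their storage solutions (11 points), were transferred to assay wells in duplicate with DMSO held at 1% final, and were briefly centrifuged.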

KRAS_WT and SOS1 = target: T2, KRAS_WT and SOS1 (Homo sapiens, UniProt P01116); experiment: Inhibition of KRAS_WT/SOS1 binding (Cisbio binding kit, 665/615 ratio), Effect Embodiment C; conditions: read-out: GTP-KRAS-WT:SOS1 IC50
T2 construct: purchased
In short: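 Compounds tested as 3-fold, 11-point dilutions in duplicate at 1% DMSO final against the KRAS_WT/SOS1 binding system. IC50 derived by nonlinear regression fit.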

KRAS_G12D and cRAF = target: T3, KRAS_G12D and cRAF (Homo sapiens, UniProt P01116, G12D); experiment: Inhibition of KRAS_G12D/cRAF binding (Cisbio binding kit, 665/615 ratio), Effect Embodiment B; conditions: read-out: GTP-KRAS-G12D:CRAF IC50
T3 construct: purchased
In short: as §1

T3 sequence (P01116 1-188 isoform P01116-2 G12D): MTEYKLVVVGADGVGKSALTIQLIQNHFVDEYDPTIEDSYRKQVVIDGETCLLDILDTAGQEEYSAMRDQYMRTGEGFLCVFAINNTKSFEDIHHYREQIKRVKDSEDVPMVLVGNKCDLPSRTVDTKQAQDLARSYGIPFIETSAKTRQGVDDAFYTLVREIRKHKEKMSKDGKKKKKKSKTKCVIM
T1 sequence (P01116 1-188 isoform P01116-2 G12D): as above
T2 sequence (P01116 1-188 isoform P01116-2): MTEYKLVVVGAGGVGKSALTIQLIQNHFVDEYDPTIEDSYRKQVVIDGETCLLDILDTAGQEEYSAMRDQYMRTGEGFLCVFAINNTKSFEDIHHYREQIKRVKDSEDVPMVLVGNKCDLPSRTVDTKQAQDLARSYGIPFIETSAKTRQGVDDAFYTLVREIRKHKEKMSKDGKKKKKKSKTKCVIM

Row | Compound | pIC50 (KRAS-G12D and SOS1) | pIC50 (KRAS_WT and SOS1) | pIC50 (KRAS_G12D and cRAF)
1 | CN(C)CCCCCOc1nc(N2CC3CCC(C2)N3)c2cc(Cl)c(-c3cc(O)cc4ccccc34)c(F)c2n1 (single isomer, unassigned) [Compound 98, 4-((S or R)-4-((1R,5S)-3,8-diazabicyclo[3.2.1]octan-3-yl)-6-chloro-2-((5-(dimethylamino)pentyl)oxy)-8-fluoroquinazolin-7-yl)naphthalen-2-ol carboxylate] | 7.02 | 5.11 | 6.32
2 | CN1CCN(CCCOc2nc(N3CC4CCC(C3)N4)c3cc(Cl)c(-c4cc(O)cc5ccccc45)c(F)c3n2)CC1 (single isomer, unassigned) [Compound 99, 4-((S or R)-4-((1R,5S)-3,8-diazabicyclo[3.2.1]octan-3-yl)-6-chloro-8-fluoro-2-(3-(4-methylpiperazin-1-yl)propoxy)quinazolin-7-yl)naphthalen-2-ol dihydrochloride] | 7.28 | 5.58 | 6.78
3 | CN1CC[C@H]1COc1nc(N2CC3CCC(C2)N3)c2cc(Cl)c(-c3cc(O)cc4ccccc34)c(F)c2n1 (single isomer, unassigned) [Compound 100, 4-((S or R)-4-((1R,5S)-3,8-diazabicyclo[3.2.1]octan-3-yl)-6-chloro-8-fluoro-2-(S)-1-methylazetidin-2-yl)methoxy)quinazolin-7-yl)naphthalen-2-ol bitrifluoroacetate] | 7.72 | 6.30 | 7.27
4 | CC(C)NCCCOc1nc(N2CC3CCC(C2)N3)c2cc(Cl)c(-c3cc(O)cc4ccccc34)c(F)c2n1 (single isomer, unassigned) [Compound 101, 4-((S or R)-4-((1R,5S)-3,8-diazabicyclo[3.2.1]octan-3-yl)-6-chloro-8-fluoro-2-(3-(isopropylamino)propoxy)quinazolin-7-yl)naphthalen-2-ol dihydrochloride] | 7.50 | 5.61 | 6.74
5 | CC(C)(COc1nc(N2CC3CCC(C2)N3)c2cc(Cl)c(-c3cc(O)cc4ccccc34)c(F)c2n1)CN1CCCC1 (single isomer, unassigned) [Compound 102, 4-((S or R)-4-((1R,5S)-3,8-diazabicyclo[3.2.1]octan-3-yl)-6-chloro-2-(2,2-dimethyl-3-(pyrrolidin-1-yl)propoxy)-8-fluoroquinazolin-7-yl)naphthalen-2-ol dihydrochloride] | 7.70 | 5.96 | 7.41
6 | CN(CCCCN1CCNCC1)CCCOc1nc(N2C[C@H]3CC[C@@H](C2)N3)c2cc(Cl)c(-c3cc(O)cc4ccccc34)c(F)c2n1 (single isomer, unassigned) [Compound 103, (S or R)-4-(4-((1R,5S)-3,8-diazabicyclo[3.2.1]octan-3-yl)-6-chloro-8-fluoro-2-(3-(methyl(4-(piperazin-1-yl)butyl)amino)propoxy)quinazolin-7-yl)naphthalen-2-ol tetrahydrochloride] | 7.71 | 5.90 | 6.92
7 | CN(C)C(C)(C)COc1nc(N2CC3CCC(C2)N3)c2cc(Cl)c(-c3cc(O)cc4ccccc34)c(F)c2n1 (single isomer, unassigned) [Compound 104, 4-((S or R)-4-((1R,5S)-3,8-diazabicyclo[3.2.1]octan-3-yl)-6-chloro-2-(2-(dimethylamino)-2-methylpropoxy)-8-fluoroquinazolin-7-yl)naphthalen-2-ol dihydrochloride] | 7.39 | < 5.00 | 6.61
8 | CCNCCCOc1nc(N2CC3CCC(C2)N3)c2cc(Cl)c(-c3cc(O)cc4ccccc34)c(F)c2n1 (single isomer, unassigned) [Compound 105, dihydrochloride] | 7.65 | 5.52 | 6.73
9 | Oc1cc(-c2c(Cl)cc3c(N4CC5CCC(C4)N5)nc(OCCCN4C5CCC4COC5)nc3c2F)c2ccccc2c1 (single isomer, unassigned) [Compound 106, (4S or R)-4-(2-(3-(3-oxa-8-azabicyclo[3.2.1]octan-8-yl)propoxy)-4-((1R,5S)-3,8-diazabicyclo[3.2.1]octan-3-yl)-6-chloro-8-fluoroquinazolin-7-yl)naphthalen-2-ol dihydrochloride] | 7.41 | 5.75 | 6.80
10 | Oc1cc(-c2c(Cl)cc3c(N4CC5CCC(C4)N5)nc(OCC(F)(F)CN4CCCC4)nc3c2F)c2ccccc2c1 (single isomer, unassigned) [Compound 107, 4-((S or R)-4-((1R,5S)-3,8-diazabicyclo[3.2.1]octan-3-yl)-6-chloro-2-(2,2-difluoro-3-(pyrrolidin-1-yl)propoxy)-8-fluoroquinazolin-7-yl)naphthalen-2-ol dihydrochloride] | 7.33 | 5.46 | 6.80
11 | C[C@@H]1CCCN1CCCOc1nc(N2CC3CCC(C2)N3)c2cc(Cl)c(-c3cc(O)cc4ccccc34)c(F)c2n1 (single isomer, unassigned) [Compound 108a, 4-((S or R)-4-((1R,5S)-3,8-diazabicyclo[3.2.1]octan-3-yl)-6-chloro-8-fluoro-2-(3-((R)-2-methylpyrrolidin-1-yl)propoxy)quinazolin-7-yl)naphthalen-2-ol dihydrochloride] | 7.25 | 5.64 | 6.67
12 | Oc1cc(-c2c(Cl)cc3c(N4CC5CCC(C4)N5)nc(OCC(F)CN4CCCC4)nc3c2F)c2ccccc2c1 (single isomer, unassigned) [Compound 109a, 4-((S or R)-4-((1R,5S)-3,8-diazabicyclo[3.2.1]octan-3-yl)-6-chloro-8-fluoro-2-((S or R)-2-fluoro-3-(pyrrolidin-1-yl)propoxy)quinazolin-7-yl)naphthalen-2-ol hydrochloride] | 7.57 | 5.59 | 7.05
13 | Oc1cc(-c2c(Cl)cc3c(N4CC5CCC(C4)N5)nc(OCC(F)CN4CCCC4)nc3c2F)c2ccccc2c1 (single isomer, unassigned) [Compound 109b, 4-((S or R)-4-((1R,5S)-3,8-diazabicyclo[3.2.1]octan-3-yl)-6-chloro-8-fluoro-2-((R or S)-2-fluoro-3-(pyrrolidin-1-yl)propoxy)quinazolin-7-yl)naphthalen-2-ol hydrochloride] | 7.24 | 5.27 | 6.68
14 | CN1CC(C)(COc2nc(N3CC4CCC(C3)N4)c3cc(Cl)c(-c4cc(O)cc5ccccc45)c(F)c3n2)C1 (single isomer, unassigned) [Compound 110, 4-((S or R)-4-((1R,5S)-3,8-diazacyclo[3.2.1]octan-3-yl)-6-chloro-2-((1,3-dimethylnonanetriacyl)methoxy)-8-fluoroquinazin-7-yl)naphthalen-2-ol ditrifluoroacetate] | 7.40 | 5.81 | 6.84
15 | CN(CCCCN1CCN(CCCCN)CC1)CCCOc1nc(N2CC3CCC(C2)N3)c2cc(Cl)c(-c3cc(O)cc4ccccc34)c(F)c2n1 (single isomer, unassigned) [Compound 111, (S or R) 4-(2-(3-((4-(4-aminobutyl)piperazin-1-yl)butyl)(methyl)amino)propoxy)-4-((1R,5S)-3,8-diazabicyclo[3.2.1]octan-3-yl)-6-chloro-8-fluoroquinazolin-7-yl)naphthalen-2-ol pentahydrochloride] | 7.65 | 5.95 | 6.97
16 | CN1CCC1CCOc1nc(N2CC3CCC(C2)N3)c2cc(Cl)c(-c3cc(O)cc4ccccc34)c(F)c2n1 (single isomer, unassigned) [Compound 112a, 4-((S or R)-4-((1R,5S)-3,8-diazabicyclo[3.2.1]octan-3-yl)-6-chloro-8-fluoro-2-(2-((S or R)-1-methylazetidin-2-yl)ethoxy)quinazolin-7-yl)naphthalen-2-ol dicarboxylate] | 7.24 | 5.60 | 6.92
17 | CCCCN(C)CCCOc1nc(N2CC3CCC(C2)N3)c2cc(Cl)c(-c3cc(O)cc4ccccc34)c(F)c2n1 (single isomer, unassigned) [Compound 113, 4-((S or R)-4-((1R,5S)-3,8-diazabicyclo[3.2.1]octan-3-yl)-2-(3-(butyl(methyl)amino)propoxy)-6-chloro-8-fluoroquinazolin-7-yl)naphthalen-2-ol hydrochloride] | 7.29 | 5.40 | 6.89
18 | Oc1cc(-c2c(Cl)cc3c(N4CC5CCC(C4)N5)nc(OCCN4CCCCC4)nc3c2F)c2ccccc2c1 (single isomer, unassigned) [Compound 114, 4-((S or R)-4-((1R,5S)-3,8-diazabicyclo[3.2.1]octan-3-yl)-6-chloro-8-fluoro-2-(2-(piperidin-1-yl)ethoxy)quinazolin-7-yl)naphthalen-2-ol dihydrochloride] | 7.43 | 5.34 | 7.00
19 | CC(C)CN(C)CCCOc1nc(N2C[C@H]3CC[C@@H](C2)N3)c2cc(Cl)c(-c3cc(O)cc4ccccc34)c(F)c2n1 (single isomer, unassigned) [Compound 115, 4-((S or R)-4-((1R,5S)-3,8-diazacyclo[3.2.1]octan-3-yl)-6-chloro-8-fluoro-2-(3-(isobutyl(methyl)amino)propoxy)quinazolin-7-yl)naphthalen-2-ol dihydrochloride] | 7.17 | 5.38 | 6.89
20 | Oc1cc(-c2c(Cl)cc3c(N4CC5CCC(C4)N5)nc(OCCN4CCCC4)nc3c2F)c2ccccc2c1 (single isomer, unassigned) [Compound 116, 4-((S or R)-4-((1R,5S)-3,8-diazabicyclo[3.2.1]octan-3-yl)-6-chloro-8-fluoro-2-(2-(pyrrolidin-1-yl)ethoxy)quinazolin-7-yl)naphthalen-2-ol dihydrochloride] | 7.18 | 5.47 | 6.72
